The record followed here is patent US8653098B2, “Pyrazolopyridine PI3K inhibitor compounds and methods of use” (Genentech, Inc., priority 2008, dated 2014).

In one experiment the test system is PC3. The experiment can be described thus: In Vitro Cell Proliferation Assay (CellTiter-Glo), PC3. It counts as cell-based. Conditions: Homo sapiens, PC-3; PC3, Prostate, mutation status PTEN. The procedure:
(§1) The in vitro potency of Formula I exemplary compounds was measured by the cell proliferation assay, CellTiter-Glo® Luminescent Cell Viability Assay, commercially available from Promega Corp., Madison, Wis. (Example 33). This homogeneous assay method is based on the recombinant expression of Coleoptera luciferase (U.S. Pat. No. 5,583,024; U.S. Pat. No. 5,674,713; U.S. Pat. No. 5,700,670) and determines the number of viable cells in culture based on quantitation of the ATP present, an indicator of metabolically active cells (Crouch et al (1993) J. Immunol. Meth. 160:81-88; U.S. Pat. No. 6,602,677).
(§2) format, making it amenable to automated high-throughput screening (HTS) (Cree et al (1995) Anti Cancer Drugs 6:398-404). The homogeneous assay procedure involves adding the single reagent (CellTiter-Glo® Reagent) directly to cells cultured in serum-supplemented medium. Cell washing, removal of medium and multiple pipetting steps are not required. The system detects as few as 15 cells/well in a 384-well format in 10 minutes after adding reagent and mixing.
(§3) The homogeneous “add-mix-measure” format results in cell lysis and generation of a luminescent signal proportional to the amount of ATP present. The amount of ATP is directly proportional to the number of cells present in culture. The CellTiter-Glo® Assay generates a “glow-type” luminescent signal, produced by the luciferase reaction, which has a half-life generally greater than five hours, depending on cell type and medium used. Viable cells are reflected in relative luminescence units (RLU). The substrate, Beetle Luciferin, is oxidatively decarboxylated by recombinant firefly luciferase with concomitant conversion of ATP to AMP and generation of photons. The extended half-life eliminates the need to use reagent injectors and provides flexibility for continuous or batch mode processing of multiple plates. This cell proliferation assay an be used with various multiwell formats, e.g. 96 or 384 well format. Data can be recorded by luminometer or CCD camera imaging device. The luminescence output is presented as relative light units (RLU), measured over time.
(§4) Efficacy of Formula I compounds were measured by a cell proliferation assay employing the following protocol (Promega Corp. Technical Bulletin TB288; Mendoza et al (2002) Cancer Res. 62:5485-5488):
(§5) 1. An aliquot of 100 n1 of cell culture containing about 10^4 cells (PC3, Detroit562, or MDAMB361.1) in medium was deposited in each well of a 384-well, opaque-walled plate.
(§6) 2. Control wells were prepared containing medium and without cells.
(§7) 3. The compound was added to the experimental wells and incubated for 3-5 days.
(§8) 4. The plates were equilibrated to room temperature for approximately 30 minutes.
(§9) 5. A volume of CellTiter-Glo Reagent equal to the volume of cell culture medium present in each well was added.
(§10) 6. The contents were mixed for 2 minutes on an orbital shaker to induce cell lysis.
(§11) 7. The plate was incubated at room temperature for 10 minutes to stabilize the luminescence signal.
(§12) 8. Luminescence was recorded and reported in graphs as RLU=relative luminescence units.
(§13) Alternatively, cells were seeded at optimal density in a 96 well plate and incubated for 4 days in the presence of test compound. Alamar Blue™ was subsequently added to the assay medium, and cells were incubated for 6 h before reading at 544 nm excitation, 590 nm emission. EC50 values were calculated using a sigmoidal dose response curve fit.
(§14) The anti-proliferative effects of Formula I exemplary compounds were measured by the CellTiter-Glo® Assay against various tumor cell lines, including the following: […]
Background: In ATP-based viability assays light output follows the ATP content of the culture.

The subject of a further experiment is MDA-MB-361.1. The experiment can be described thus: In Vitro Cell Proliferation Assay (CellTiter-Glo), MDA-MB-361.1. Conditions: MDA-MB-361.1, Breast, mutation status PI3K. It counts as cell-based. The procedure:
as §1, §2, §3, §4, §5, §6, §7, §8, §9, §10, §11, §12, §13, §14

The target in another experiment is T1, p110 alpha PI3K (Homo sapiens, UniProt P42336).
T1 construct: purchased Upstate Cell Signaling Solutions, Charlottesville, Va
The experiment can be described thus: p110α (alpha) PI3K Binding Assay (fluorescence polarization; alternatively radiometric). To be noted: tested for PI3K activity according to the methods of this invention. It counts as biochemical. As to the method:
Binding Assays: Initial polarization experiments were performed on an Analyst HT 96-384 (Molecular Devices Corp, Sunnyvale, Calif.). Samples for fluorescence polarization affinity measurements were prepared by addition of 1:3 serial dilutions of p110 alpha PI3K (Upstate Cell Signaling Solutions, Charlottesville, Va.) starting at a final concentration of 20 ug/mL in polarization buffer (10 mM Tris pH 7.5, 50 mM NaCl, 4 mM MgCl2, 0.05% Chaps, and 1 mM DTT) to 10 mM PIP2 (Echelon-Inc., Salt Lake City, Utah.) final concentration. After an incubation time of 30 minutes at room temperature, the reactions were stopped by the addition of GRP-1 and PIP3-TAMRA probe (Echelon-Inc., Salt Lake City, Utah.) 100 nM and 5 nM final concentrations respectively. […] This experiment also establishes the appropriate protein concentration to use in subsequent competition experiments with inhibitors.
Inhibitor IC50 values were determined by addition of the 0.04 mg/mL p110 alpha PI3K (final concentration) combined with PIP2 (10 mM final concentration) to wells containing 1:3 serial dilutions of the antagonists in a final concentration of 25 mM ATP (Cell Signaling Technology, Inc., Danvers, Mass.) in the polarization buffer. After an incubation time of 30 minutes at room temperature, the reactions were stopped by the addition of GRP-1 and PIP3-TAMRA probe (Echelon-Inc., Salt Lake City, Utah.) 100 nM and 5 nM final concentrations respectively.
Alternatively, inhibition of PI3K was determined in a radiometric assay using purified, recombinant enzyme and ATP at a concentration of 1 uM. The Formula I compound was serially diluted in 100% DMSO. The kinase reaction was incubated for 1 h at room temperature, and the reaction was terminated by the addition of PBS. IC50 values were subsequently determined using sigmoidal dose-response curve fit (variable slope).
For orientation: In fluorescence polarisation assays a small probe gives low polarisation when free and higher when bound to something large.

T1 sequence (P42336 whole entry): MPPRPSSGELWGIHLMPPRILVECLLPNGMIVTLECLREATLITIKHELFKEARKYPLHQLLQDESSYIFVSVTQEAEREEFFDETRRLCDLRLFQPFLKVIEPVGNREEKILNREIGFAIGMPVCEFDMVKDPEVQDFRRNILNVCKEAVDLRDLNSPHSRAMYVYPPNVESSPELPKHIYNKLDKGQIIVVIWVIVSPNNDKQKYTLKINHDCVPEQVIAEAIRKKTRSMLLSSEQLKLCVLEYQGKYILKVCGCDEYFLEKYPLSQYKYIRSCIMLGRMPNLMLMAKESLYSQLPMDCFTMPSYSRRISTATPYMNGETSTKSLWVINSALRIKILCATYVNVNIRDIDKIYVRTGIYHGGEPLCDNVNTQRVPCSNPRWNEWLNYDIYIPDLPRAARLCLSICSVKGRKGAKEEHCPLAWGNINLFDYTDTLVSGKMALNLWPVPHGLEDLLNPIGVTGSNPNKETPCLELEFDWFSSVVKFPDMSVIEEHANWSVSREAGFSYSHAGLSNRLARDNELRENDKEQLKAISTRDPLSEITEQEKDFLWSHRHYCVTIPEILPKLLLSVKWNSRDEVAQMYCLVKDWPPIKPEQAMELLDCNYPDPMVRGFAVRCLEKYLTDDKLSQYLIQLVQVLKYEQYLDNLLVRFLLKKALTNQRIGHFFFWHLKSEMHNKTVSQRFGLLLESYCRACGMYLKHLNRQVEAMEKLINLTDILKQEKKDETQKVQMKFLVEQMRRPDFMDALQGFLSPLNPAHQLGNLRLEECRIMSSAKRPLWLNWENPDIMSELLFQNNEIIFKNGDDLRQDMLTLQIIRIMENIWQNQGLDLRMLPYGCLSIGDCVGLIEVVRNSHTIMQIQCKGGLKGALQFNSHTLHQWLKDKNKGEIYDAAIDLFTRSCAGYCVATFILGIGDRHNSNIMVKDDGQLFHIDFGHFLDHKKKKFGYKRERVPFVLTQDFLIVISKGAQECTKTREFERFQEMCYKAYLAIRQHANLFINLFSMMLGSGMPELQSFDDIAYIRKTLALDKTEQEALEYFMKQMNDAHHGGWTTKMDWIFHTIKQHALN
T1 sequence (P27986 whole entry partner): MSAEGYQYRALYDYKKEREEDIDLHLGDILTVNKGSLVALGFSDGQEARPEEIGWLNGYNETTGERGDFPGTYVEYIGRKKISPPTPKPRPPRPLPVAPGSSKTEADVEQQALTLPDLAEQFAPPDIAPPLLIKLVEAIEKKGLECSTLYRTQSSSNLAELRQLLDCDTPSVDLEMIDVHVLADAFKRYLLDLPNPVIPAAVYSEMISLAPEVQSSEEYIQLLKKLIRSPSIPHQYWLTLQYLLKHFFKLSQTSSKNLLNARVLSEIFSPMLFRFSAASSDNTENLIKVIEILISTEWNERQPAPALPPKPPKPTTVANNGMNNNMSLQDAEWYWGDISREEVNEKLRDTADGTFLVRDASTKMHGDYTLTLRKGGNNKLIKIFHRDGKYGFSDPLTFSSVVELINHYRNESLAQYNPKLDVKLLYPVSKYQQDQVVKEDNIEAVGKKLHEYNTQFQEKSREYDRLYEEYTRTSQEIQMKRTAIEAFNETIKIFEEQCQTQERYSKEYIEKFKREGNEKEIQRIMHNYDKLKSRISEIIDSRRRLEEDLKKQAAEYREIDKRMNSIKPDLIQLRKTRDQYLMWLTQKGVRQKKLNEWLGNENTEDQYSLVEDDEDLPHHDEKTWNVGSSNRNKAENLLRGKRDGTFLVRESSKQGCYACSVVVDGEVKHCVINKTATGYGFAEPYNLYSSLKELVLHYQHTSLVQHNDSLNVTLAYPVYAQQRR

Regarding `Cn1ncc2c(Oc3ccc(S(C)(=O)=O)cc3)cc(-c3cccc4[nH]ncc34)nc21` [Compound 101, 6-(1H-indazol-4-yl)-1-methyl-4-(4-(methylsulfonyl)phenoxy)-1H-pyrazolo[3,4-b]pyridine], the figures for the EC50 in the experiment on PC3 and in the experiment on MDA-MB-361.1 were 881 nM and 965 nM, respectively.

For `Cn1ncc2c(Oc3ccc(S(C)(=O)=O)cc3)cc(-c3ccc4[nH]ncc4c3)nc21` [Compound 102, 6-(1H-indazol-5-yl)-1-methyl-4-(4-(methylsulfonyl)phenoxy)-1H-pyrazolo[3,4-b]pyridine], the IC50 (commonly the concentration needed to halve the response being measured) on p110 alpha PI3K is 224 nM. Same read-out and setting: for `CCCNc1cc(-c2cccc3[nH]ncc23)nc2c1cnn2C` [Compound 103, 6-(1H-indazol-4-yl)-1-methyl-N-propyl-1H-pyrazolo[3,4-b]pyridin-4-amine] the value was 82.8 nM. `Cn1ncc2c(Nc3ccc(S(C)(=O)=O)cc3)cc(-c3cccc4[nH]ncc34)nc21` [Compound 104, 6-(1H-indazol-4-yl)-1-methyl-N-(4-(methylsulfonyl)phenyl)-1H-pyrazolo[3,4-b]pyridin-4-amine]: the values for the EC50 in the experiment on PC3 and in the experiment with MDA-MB-361.1 were 2000 nM and 475 nM, respectively. Moreover, at p110 alpha PI3K, the IC50 turned out to be 2.23 nM.

`Cn1ncc2c(Oc3ccc(S(C)(=O)=O)cc3)cc(-c3cccc4c(N)n[nH]c34)nc21` [Compound 105, 7-(1-methyl-4-(4-(methylsulfonyl)phenoxy)-1H-pyrazolo[3,4-b]pyridin-6-yl)-1H-indazol-3-amine]: the IC50 on p110 alpha PI3K was 13.7 nM. This counts as double-digit nanomolar. Compound `Cc1cccc(C)c1Oc1cc(-c2cccc3[nH]ncc23)nc2c1cnn2C` [Compound 106, 4-(2,6-dimethylphenoxy)-6-(1H-indazol-4-yl)-1-methyl-1H-pyrazolo[3,4-b]pyridine] yielded an IC50 at p110 alpha PI3K of 399 nM.

`COc1cccc(Oc2cc(-c3cccc4[nH]ncc34)nc3c2cnn3C)c1` [Compound 107, 6-(1H-indazol-4-yl)-4-(3-methoxyphenoxy)-1-methyl-1H-pyrazolo[3,4-b]pyridine] had an IC50 on p110 alpha PI3K of 53 nM. `COc1ccc(Oc2cc(-c3cccc4[nH]ncc34)nc3c2cnn3C)cc1OC` [Compound 108, 4-(3,4-dimethoxyphenoxy)-6-(1H-indazol-4-yl)-1-methyl-1H-pyrazolo[3,4-b]pyridine] registered an IC50 on p110 alpha PI3K of 16 nM. As for `CNC(=O)c1cccc(-c2cc(-c3cccc4[nH]ncc34)nc3c2cnn3C)c1` [Compound 111, 3-(6-(1H-indazol-4-yl)-1-methyl-1H-pyrazolo[3,4-b]pyridine-4-yl)-N-methylbenzamide], the EC50 (in general, the concentration needed to bring the measured effect to its halfway point) with PC3 amounted to 2400 nM; with MDA-MB-361.1 it was 1000 nM.

`Cn1ncc2c(-c3cccc(NS(C)(=O)=O)c3)cc(-c3cccc4[nH]ncc34)nc21` [Compound 113, N-(3-(6-(1H-indazol-4-yl)-1-methyl-1H-pyrazolo[3,4-b]pyridin-4-yl)phenyl)methanesulfonamide]: the EC50 stood at 561 nM in the experiment on PC3 and 749 nM in the experiment with MDA-MB-361.1.

For `Cn1ncc2c(-c3ccc(S(C)(=O)=O)cc3)cc(-c3cccc4[nH]ncc34)nc21` [Compound 115, 6-(1H-indazol-4-yl)-1-methyl-4-(4-(methylsulfonyl)phenyl)-1H-pyrazolo[3,4-b]pyridine], the EC50 was found to be 750 nM in the experiment on PC3 and 346 nM in the experiment on MDA-MB-361.1. For `COc1ccc(-c2cc(Oc3ccc(S(C)(=O)=O)cc3)c3cnn(C)c3n2)cn1` [Compound 117, 6-(6-methoxypyridin-3-yl)-1-methyl-4-(4-(methylsulfonyl)phenoxy)-1H-pyrazolo[3,4-b]pyridine], the IC50 on p110 alpha PI3K amounted to 47.5 nM. On to `COc1cc(-c2cc(Oc3ccc(S(C)(=O)=O)cc3)c3cnn(C)c3n2)ccn1` [Compound 118, 6-(2-methoxypyridin-4-yl)-1-methyl-4-(4-(methylsulfonyl)phenoxy)-1H-pyrazolo[3,4-b]pyridine], for which the results for the EC50 in the experiment on PC3 and in the experiment with MDA-MB-361.1 were 4900 nM and 2400 nM, respectively. `Cn1ncc2c(Oc3ccc(S(C)(=O)=O)cc3)cc(-c3ccnc(O)c3)nc21` [Compound 120, 4-(1-methyl-4-(4-(methylsulfonyl)phenoxy)-1H-pyrazolo[3,4-b]pyridin-6-yl)pyridin-2-ol] registered an IC50 on p110 alpha PI3K of 575 nM. This counts as sub-micromolar. The same measure, in the same setting: for `Cn1ncc2c(Oc3ccc(S(C)(=O)=O)cc3)cc(-c3cccc4c(N)noc34)nc21` [Compound 121, 7-(1-methyl-4-(4-(methylsulfonyl)phenoxy)-1H-pyrazolo[3,4-b]pyridin-6-yl)benzo[d]isoxazol-3-amine] the value was 153 nM.
